Measured values from patent publication US9211310B2, “Use of a Chinese medicine composition in preparing medicaments for treating secondary prevention of myocardial infarction” (TASLY PHARMACEUTICAL GROUP CO., LTD, priority 2010, dated 2015).

System: patients after acute myocardial infarction
Test: TCM symptom score, total and single (chest pain, chest tightness, short breath, fatigue, palpitation, spontaneous perspiration, pale complexion), same clinical trial
Format: in vivo, human
Description: 3508 patients who were in accordance with the diagnostic standards of AMI for 28 days to 2 years and differentiated as Qi deficiency and blood stagnation syndrome by TCM were studied. 0.5 g Chinese medicine composition prepared by the method of EXAMPLE 1 (Coded as QSYQ) was administrated half an hour after meal, 3 times per day.
They included the overall survival time, angina pectoris score, TCM symptom score and life quality score, where angina pectoris score, TCM symptom score and life quality score were evaluated at randomization, in 1st, 3rd, 6th, 9th, 12th month after treatment and 18th month after follow-up.
The analysis method referred to the angina pectoris score.

[1] = 3 months after treatment-baseline, PP
[2] = 6 months after treatment-baseline, FAS
[3] = 6 months after treatment-baseline, PP

CC(=O)Oc1ccccc1C(=O)O [Control group, aspirine]
change of chest pain score −6, percent of patients [1]: (0.97%) | change of chest tightness score 0, number of patients [1]: 994 | change of chest tightness score 0, percent of patients [1]: (68.88%) | change of chest tightness score 3, number of patients [1]: 334 | change of chest tightness score 3, percent of patients [1]: (23.15%) | change of chest tightness score 6, number of patients [1]: 34 | change of chest tightness score 6, percent of patients [1]: (2.36%) | change of chest tightness score 9, number of patients [1]: 4 | change of chest tightness score 9, percent of patients [1]: (0.28%) | change of chest tightness score −3, number of patients [1]: 70 | change of chest tightness score −3, percent of patients [1]: (4.85%) | change of chest tightness score −6, number of patients [1]: 6 | change of chest tightness score −6, percent of patients [1]: (0.42%) | change of chest tightness score −9, number of patients [1]: 1 | change of chest tightness score −9, percent of patients [1]: (0.07%) | chest pain score 0, number of patients (3 months after treatment, FAS): 656 | chest pain score 0, percent of patients (3 months after treatment, FAS): (38.21%) | chest pain score 3, number of patients (3 months after treatment, FAS): 643 | chest pain score 3, percent of patients (3 months after treatment, FAS): (37.45%) | chest pain score 6, number of patients (3 months after treatment, FAS): 410 | chest pain score 6, percent of patients (3 months after treatment, FAS): (23.88%) | chest pain score 9, number of patients (3 months after treatment, FAS): 8 | chest pain score 9, percent of patients (3 months after treatment, FAS): (0.47%) | chest tightness score 0, number of patients (3 months after treatment, FAS): 656 | chest tightness score 0, percent of patients (3 months after treatment, FAS): (38.21%) | chest tightness score 3, number of patients (3 months after treatment, FAS): 643 | chest tightness score 3, percent of patients (3 months after treatment, FAS): (37.45%) | chest tightness score 6, number of patients (3 months after treatment, FAS): 410 | chest tightness score 6, percent of patients (3 months after treatment, FAS): (23.88%) | chest tightness score 9, number of patients (3 months after treatment, FAS): 8 | chest tightness score 9, percent of patients (3 months after treatment, FAS): (0.47%) | chest pain score 0, number of patients (3 months after treatment, PP): 550 | chest pain score 0, percent of patients (3 months after treatment, PP): (38.01%) | chest pain score 3, number of patients (3 months after treatment, PP): 535 | chest pain score 3, percent of patients (3 months after treatment, PP): (36.97%) | chest pain score 6, number of patients (3 months after treatment, PP): 356 | chest pain score 6, percent of patients (3 months after treatment, PP): (24.60%) | chest pain score 9, number of patients (3 months after treatment, PP): 6 | chest pain score 9, percent of patients (3 months after treatment, PP): (0.41%) | chest tightness score 0, number of patients (3 months after treatment, PP): 550 | chest tightness score 0, percent of patients (3 months after treatment, PP): (38.01%) | chest tightness score 3, number of patients (3 months after treatment, PP): 535 | chest tightness score 3, percent of patients (3 months after treatment, PP): (36.97%) | chest tightness score 6, number of patients (3 months after treatment, PP): 356 | chest tightness score 6, percent of patients (3 months after treatment, PP): (24.60%) | chest tightness score 9, number of patients (3 months after treatment, PP): 6 | chest tightness score 9, percent of patients (3 months after treatment, PP): (0.41%) | change of chest pain score 0, number of patients [2]: 1104 | change of chest pain score 0, percent of patients [2]: (64.60%) | change of chest pain score 3, number of patients [2]: 405 | change of chest pain score 3, percent of patients [2]: (23.70%) | change of chest pain score 6, number of patients [2]: 101 | change of chest pain score 6, percent of patients [2]: (5.91%) | change of chest pain score 9, number of patients [2]: 6 | change of chest pain score 9, percent of patients [2]: (0.35%) | change of chest pain score −3, number of patients [2]: 80 | change of chest pain score −3, percent of patients [2]: (4.68%) | change of chest pain score −6, number of patients [2]: 13 | change of chest pain score −6, percent of patients [2]: (0.76%) | change of chest pain score −9, number of patients [2]: 0 | change of chest pain score −9, percent of patients [2]: (0.00%) | change of chest tightness score 0, number of patients [2]: 1105 | change of chest tightness score 0, percent of patients [2]: (64.66%) | change of chest tightness score 1, number of patients [2]: 1 | change of chest tightness score 1, percent of patients [2]: (0.06%) | change of chest tightness score 3, number of patients [2]: 459 | change of chest tightness score 3, percent of patients [2]: (26.86%) | change of chest tightness score 6, number of patients [2]: 48 | change of chest tightness score 6, percent of patients [2]: (2.81%) | change of chest tightness score 9, number of patients [2]: 4 | change of chest tightness score 9, percent of patients [2]: (0.23%) | change of chest tightness score −3, number of patients [2]: 88 | change of chest tightness score −3, percent of patients [2]: (5.15%) | change of chest tightness score −6, number of patients [2]: 3 | change of chest tightness score −6, percent of patients [2]: (0.18%) | change of chest tightness score −9, number of patients [2]: 1 | change of chest tightness score −9, percent of patients [2]: (0.06%) | change of chest pain score 0, number of patients [3]: 919 | change of chest pain score 0, percent of patients [3]: (64.54%) | change of chest pain score 3, number of patients [3]: 352 | change of chest pain score 3, percent of patients [3]: (24.72%) | change of chest pain score 6, number of patients [3]: 86 | change of chest pain score 6, percent of patients [3]: (6.04%) | change of chest pain score 9, number of patients [3]: 5 | change of chest pain score 9, percent of patients [3]: (0.35%) | change of chest pain score −3, number of patients [3]: 57 | change of chest pain score −3, percent of patients [3]: (4.00%) | change of chest pain score −6, number of patients [3]: 5 | change of chest pain score −6, percent of patients [3]: (0.35%) | change of chest pain score −9, number of patients [3]: 0 | change of chest pain score −9, percent of patients [3]: (0.00%) | change of chest tightness score 0, number of patients [3]: 904 | change of chest tightness score 0, percent of patients [3]: (63.44%) | change of chest tightness score 1, number of patients [3]: 1 | change of chest tightness score 1, percent of patients [3]: (0.07%) | change of chest tightness score 3, number of patients [3]: 407 | change of chest tightness score 3, percent of patients [3]: (28.56%) | change of chest tightness score 6, number of patients [3]: 42 | change of chest tightness score 6, percent of patients [3]: (2.95%) | change of chest tightness score 9, number of patients [3]: 3 | change of chest tightness score 9, percent of patients [3]: (0.21%) | change of chest tightness score −3, number of patients [3]: 64 | change of chest tightness score −3, percent of patients [3]: (4.49%) | change of chest tightness score −6, number of patients [3]: 3 | change of chest tightness score −6, percent of patients [3]: (0.21%) | change of chest tightness score −9, number of patients [3]: 1 | change of chest tightness score −9, percent of patients [3]: (0.07%) | chest pain score 0, number of patients (6 months after treatment, FAS): 729 | chest pain score 0, percent of patients (6 months after treatment, FAS): (42.43%) | chest pain score 3, number of patients (6 months after treatment, FAS): 638 | chest pain score 3, percent of patients (6 months after treatment, FAS): (37.14%) | chest pain score 6, number of patients (6 months after treatment, FAS): 345 | chest pain score 6, percent of patients (6 months after treatment, FAS): (20.08%) | chest pain score 9, number of patients (6 months after treatment, FAS): 6 | chest pain score 9, percent of patients (6 months after treatment, FAS): (0.35%) | chest tightness score 0, number of patients (6 months after treatment, FAS): 729 | chest tightness score 0, percent of patients (6 months after treatment, FAS): (42.43%) | chest tightness score 3, number of patients (6 months after treatment, FAS): 638 | chest tightness score 3, percent of patients (6 months after treatment, FAS): (37.14%) | chest tightness score 6, number of patients (6 months after treatment, FAS): 345 | chest tightness score 6, percent of patients (6 months after treatment, FAS): (20.08%) | chest tightness score 9, number of patients (6 months after treatment, FAS): 6 | chest tightness score 9, percent of patients (6 months after treatment, FAS): (0.35%) | chest pain score 0, number of patients (6 months after treatment, PP): 613
